± gives the expanded uncertainty stated by the source.
How the values were obtained:
[1] = 101 kPa, Liquid; for viscosity: Capillary tube (Ostwald / Ubbelohde) method; for mass density: Vibrating tube method
[2] = xn = mol fraction of the nth substance listed; details: 101 kPa, Liquid, x2 = 0; for viscosity: Capillary tube (Ostwald / Ubbelohde) method; for mass density: Vibrating tube method

SMILES | viscosity ([1]; 293.15 K) [mPa·s] | mass density ([1]; 293.15 K) [kg/m3] | viscosity ([1]; 303.15 K) [mPa·s] | mass density ([1]; 303.15 K) [kg/m3] | viscosity ([1]; 313.15 K) [mPa·s] | mass density ([1]; 313.15 K) [kg/m3] | viscosity ([1]; 323.15 K) [mPa·s] | mass density ([1]; 323.15 K) [kg/m3] | viscosity ([2]; 293.15 K) [mPa·s] | mass density ([2]; 293.15 K) [kg/m3] | viscosity ([2]; 303.15 K) [mPa·s] | mass density ([2]; 303.15 K) [kg/m3] | viscosity ([2]; 313.15 K) [mPa·s] | mass density ([2]; 313.15 K) [kg/m3] | viscosity ([2]; 323.15 K) [mPa·s] | mass density ([2]; 323.15 K) [kg/m3]
NCCO [2-aminoethan-1-ol] | 23.4 ± 0.95 | 1016.3 ± 1 | 14.71 ± 0.6 | 1008.02 ± 1 | 9.77 ± 0.4 | 999.98 ± 1 | 6.83 ± 0.28 | 991.97 ± 1 |  |  |  |  |  |  |  | 
NCCO [2-aminoethan-1-ol] + CN(CCO)CCO |  |  |  |  |  |  |  |  | 23.4 ± 0.95 | 1016.3 ± 1 | 14.71 ± 0.6 | 1008.02 ± 1 | 9.77 ± 0.4 | 999.98 ± 1 | 6.83 ± 0.28 | 991.97 ± 1
CN(CCO)CCO [N-methyldiethanolamine] | 103.04 ± 4.3 | 1040.5 ± 1 | 57.28 ± 2.3 | 1032.6 ± 1 | 33.94 ± 1.4 | 1024.76 ± 1 | 21.31 ± 0.87 | 1017.12 ± 1 |  |  |  |  |  |  |  | 
CCO [ethanol] | 1.17 ± 0.05 | 788.88 ± 1 | 0.97 ± 0.04 | 781.69 ± 1 | 0.81 ± 0.03 | 772.3 ± 1 | 0.69 ± 0.03 | 765.29 ± 1 |  |  |  |  |  |  |  | 
CCO [ethanol] + CN(CCO)CCO |  |  |  |  |  |  |  |  | 1.17 ± 0.05 | 788.88 ± 1 | 0.97 ± 0.04 | 781.69 ± 1 | 0.81 ± 0.03 | 772.3 ± 1 | 0.69 ± 0.03 | 765.29 ± 1
CCO [ethanol] + NCCO |  |  |  |  |  |  |  |  | 1.17 ± 0.05 | 788.88 ± 1 | 0.97 ± 0.04 | 781.69 ± 1 | 0.81 ± 0.03 | 772.3 ± 1 | 0.69 ± 0.03 | 765.29 ± 1
